One data set relates to Daudi cells. Description: 3H-thymidine assay on Daudi cells, PVA conjugates with APO. The data set is classed as cell-based. To be noted: Figure 25. The method, then: The ^3H-thymidine assay was performed essentially as described in the examples above with slight modifications due to the fact that the Daudi cells are non-adherent. Thus, approximately 250,000 Daudi cells in IMDM were plated into each well of a 96-well microtiter plate and the antibody-enzyme conjugate added. The reaction mixture was incubated at 4°C for 30 min. Unbound antibody-enzyme conjugate was removed by centrifuging at 500 x g for 5 min and removing the supernatant. The cells were resuspended in IMDM and the washing procedure was repeated three times to remove all unbound conjugate. APO in IMDM was then added for 2 h and washed once as described above. The remainder of the assay was performed as described in the examples above.

The test system of data set [1] is H2981 tumor cells. Description: 3H-thymidine uptake assay on H2981 cells, PVA conjugates with APO. The class given is cell-based. The settings on record: Homo sapiens; H2981 cells untreated with any conjugate. The method, then:
The in vitro cytotoxic effect of the antibody-PVA/ adriamycin prodrug combination of the invention toward H2981 tumor cells was measured using the ^3H-thymidine uptake assay described in Examples 1 and 2 above. Briefly, the H2981 tumor cells were plated into 96-well microtiter plates in IMDM (10,000 cells/well) and were allowed to attached for 18 h at 37°C. The antibody-PVA conjugates, L6-PVA or 1F5-PVA, were then added at a concentration of 10 µg/ml of antibody and the plates were incubated for 30 min at 4°C. The wells were then washed four times with IMDM and APO was added at varying concentrations in IMDM. After two h, the wells were again washed, IMDM was added and the cells were left for 18 h at 37°C. At that point, ^3H-thymidine was added (1 µCi per well) and after 6 h, the plates were frozen at -70°C to detach the cells. After thawing, the cells were harvested onto glass fiber filters. The incorporation of ^3H-thymidine was measured in a Beckman 3801 scintillation counter and compared to cells treated with APO or adriamycin (ADM) alone.

Data set [2] in a line: Relative toxicities of MOH and MOP in mice. The settings on record: mouse, in vivo, ip. Details: species or system Balb C nu/nu mice. Here is the method:
Prior to investigating the in vivo antitumor activity of MOP in combination with the L6-AP conjugate the relative toxicities of the prodrug and its released active derivative, MOH, were determined in Balb C nu/nu mice. […] Total amounts of up to 40 mg/kg of MOH and 100 mg/kg of MOP were well tolerated if given in 4 equal doses over a 25 day period.

Data set [3] relates to H2981 tumor cells. To be noted: at 10 µM, H2981 cells.
The subject of data set [4] is calf intestinal or human placental AP. The data set is described as follows: Reactivity of MOP with AP (HPLC). The class given is biochemical. To be noted: MOP 1 mM, AP 1 µg/ml, 100 mM Tris pH 7.2, room temperature. Here is the method:
The MOP prodrug was then tested for its reactivity with AP. […] The course of the reaction was monitored by HPLC using a C-18 column (4.6 x 150 mm) and the following conditions: detection at 280 nm; 30-95% methanol in acetate buffer (100 mM, pH 5.2) over 8 min, re-equilibration after 15 min; 0.8 ml/min flow rate. Under these conditions, MMC eluted at 7.0 min, MOH eluted at 8.5 min, and MOP eluted 4.0 min. […] HPLC served to confirm that the corresponding alcohol, MOH, was formed. Under the reaction conditions used, the half life for hydrolysis of MOP was about 10 min and the reaction went to completion within 40 min.

Another data set concerns H2981 tumor. The data set is described as follows: In vivo antitumor effect, conjugate/mitomycin prodrug and MOP/EP combinations, s.c. H2981 tumor. Details: species or system nude Balb C nu/nu female mice. The method, then:
Therapy studies were then performed on nude Balb C nu/nu female mice (6 mice per treatment group) (4-6 wk old) obtained from Life Sciences (St. Petersburg, Fla.) that had been implanted (s.c., right hind flank) with a H2981 tumor obtained from in vivo sourcing. The experiments were run when the tumors reached approximately 100 mm^3 in volume. The L6-AP and 1F5-AP conjugates (0.1 ml containing 250 µg antibody in PBS) were each administered (i.p.) 18-24 h prior to treatment with MOP (0.2 ml containing 0.6 mg MOP in H2O). Tumor growth was compared to that observed in untreated mice and in mice treated with maximum tolerated doses of MOP (0.2 ml containing 0.6 mg MOP in H2O) or MOH (0.2 ml containing 0.2 mg MOH in H2O) alone.
The prodrugs, EP and MOP, were prepared as described in Examples 1 and 2, respectively. Preparation of the L6-AP and 1F5-AP immunoconjugates is described in Example 1. The in vivo studies on nude mice were carried out as described in Examples 1 and 2 above. Thus, nude mice that had been implanted with a H2981 tumor were pre-exposed to the L6-AP or 1F5-AP conjugate 18-24 h prior to treatment with a combination of MOP/EP (0.2 ml containing 1 mg EP and 0.3 mg MOP in H2O). Tumor growth was compared to that observed in untreated mice and in mice treated with the MOP/EP combination alone.

[5] abbreviates: by day 63, mitomycin derivatives (Table 3).

As usually defined, the IC50 is the concentration needed to halve the response being measured. As usually defined, the LD50 is the dose expected to kill half of the subjects tested.

Regarding `COc1cccc2c1C(=O)c1c(O)c3c(c(O)c1C2=O)C[C@@](O)(C(=O)CO)C[C@@H]3O[C@H]1C[C@H](N)[C@H](O)[C@H](C)O1` [adriamycin, reference compound], in the data set on Daudi cells, the “cytotoxicity on Daudi cells” value is “significantly more toxic than APO”. The IC50 with H2981 tumor cells [1] was determined as 38 nM.
Consider `CO[C@@]12[C@H](COC(N)=O)C3=C(C(=O)C(C)=C(NCCOP(=O)(O)O)C3=O)N1C[C@@H]1N[C@@H]12` [MOP, 7-(2'-aminoethyl phosphate)mitomycin], for which the LD50 in data set [2] (two equal doses spaced 4 days apart) was 90 mg/kg. Also, the MTD in data set [2] (given in 4 equal doses over a 25 day period, read-out: total amounts well tolerated) was not above 100 mg/kg. The compound also displayed a cell kill with H2981 tumor cells [3] of 5%. In data set [4], the “time for the reaction to go to completion” value is reported as not above 40 min. Moreover, the “antitumor activity in vivo” value in the data set on H2981 tumor (Figures 18 and 19, conjugates 18-24 h prior to prodrug) is listed as “significant antitumor activities in vivo”. In addition, the “time required to reach an average tumor volume of 750 mm^3” value in the data set with H2981 tumor (H2981 tumor, maximum tolerated doses) is on record as 63 days. Moreover, in the data set with H2981 tumor (setting [5]), the “TUMOR RESPONSES PROGRESSION” value is reported as 4/5 and the “TUMOR RESPONSES STABLE” value is 1/5.

(Values after patent EP0540859B1, “Anthracycline prodrugs” (Bristol-Myers Squibb Company, priority 1987, dated 1989).)
